In PubChem BioAssay AID200 (DTP/NCI, 2004):
Several values for one entry are separate records, joined by “and”; a condition that tells them apart may be missing. Equal entries are not always repeated. Inconclusive results and toxic doses are left out.

System: B6C3F1 mice, B16 melanoma ip, median survival T/C
Assay: NCI In Vivo Anticancer Drug Screen. Data for tumor model B16 Melanoma (intraperitoneal) in B6C3F1 mice
Details: endpoint: median survival time, higher = longer survival
Outline: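 Mice bearing transplanted tumor were dosed with compound or vehicle, and survival was recorded. Activity is expressed as the treated-group measurement (T) divided by the vehicle control measurement (C).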

[1] = dose: 30.0 mg/kg/injection, schedule: Q01DX001 (ip), vehicle: saline
[2] = dose: 60.0 mg/kg/injection, schedule: Q01DX001 (ip), vehicle: saline
[3] = dose: 3.12 mg/kg/injection, schedule: Q01DX009 (ip), vehicle: saline with Tween-80
[4] = dose: 12.5 mg/kg/injection, schedule: Q01DX009 (ip), vehicle: saline with Tween-80
[5] = dose: 25.0 mg/kg/injection, schedule: Q01DX009 (ip), vehicle: saline with Tween-80
[6] = dose: 50.0 mg/kg/injection, schedule: Q01DX009 (ip), vehicle: saline with Tween-80
[7] = dose: 100.0 mg/kg/injection, schedule: Q01DX009 (ip), vehicle: saline with Tween-80
[8] = dose: 6.25 mg/kg/injection, schedule: Q01DX009 (ip), vehicle: saline with Tween-80
[9] = dose: 25.0 mg/kg/injection, schedule: Q01DX009 (ip), vehicle: Klucel (hydroxypropylcellulose) (HPC)
[10] = dose: 50.0 mg/kg/injection, schedule: Q01DX009 (ip), vehicle: Klucel (hydroxypropylcellulose) (HPC)
[11] = dose: 100.0 mg/kg/injection, schedule: Q01DX009 (ip), vehicle: Klucel (hydroxypropylcellulose) (HPC)
[12] = dose: 200.0 mg/kg/injection, schedule: Q01DX009 (ip), vehicle: Klucel (hydroxypropylcellulose) (HPC)
[13] = dose: 12.5 mg/kg/injection, schedule: Q01DX009 (ip), vehicle: distilled water + Tween-80
[14] = dose: 25.0 mg/kg/injection, schedule: Q01DX009 (ip), vehicle: distilled water + Tween-80
[15] = dose: 12.5 mg/kg/injection, schedule: Q01DX009 (ip), vehicle: saline

O=NN(CCF)C(=O)NCCO
T/C (dose: 15.0 mg/kg/injection, schedule: Q01DX001 (ip), vehicle: saline): 181 % of control | T/C [1]: 221 % of control | T/C [2]: 250 % of control

Nc1nc2c(ncn2C2OC(CO)C(O)C2O)c(=O)[nH]1 (configuration not stated)
T/C (dose: 75.0 mg/kg/injection, schedule: Q01DX009 (ip), vehicle: saline with Tween-80): 120 % of control | T/C (dose: 1200.0 mg/kg/injection, schedule: Q01DX009 (ip), vehicle: saline with Tween-80): 121 % of control | T/C (dose: 2400.0 mg/kg/injection, schedule: Q01DX009 (ip), vehicle: saline with Tween-80): 116 % of control

O=CC(NC(=O)N(CCF)N=O)C(O)C(O)C(O)CO (configuration not stated)
T/C [1]: 169 % of control | T/C [2]: 210 % of control | T/C (dose: 120.0 mg/kg/injection, schedule: Q01DX001 (ip), vehicle: saline): 204 % of control

CO[C@H]1Nc2c(ccc(C)c2O)C(=O)N2C=C(/C=C/C(N)=O)C[C@@H]12
T/C (dose: 0.03 mg/kg/injection, schedule: Q01DX009 (ip), vehicle: saline with Tween-80): 111 % of control | T/C (dose: 0.05 mg/kg/injection, schedule: Q04DX003 (ip), vehicle: DMSO): 92 % of control | T/C (dose: 0.06 mg/kg/injection, schedule: Q01DX009 (ip), vehicle: saline with Tween-80): 104 % of control | T/C (dose: 0.1 mg/kg/injection, schedule: Q04DX003 (ip), vehicle: DMSO): 105 % of control | T/C (dose: 0.12 mg/kg/injection, schedule: Q01DX009 (ip), vehicle: saline with Tween-80): 102 % of control | T/C (dose: 0.2 mg/kg/injection, schedule: Q04DX003 (ip), vehicle: DMSO): 109 % of control | T/C (dose: 0.25 mg/kg/injection, schedule: Q01DX009 (ip), vehicle: saline with Tween-80): 122 % of control | T/C (dose: 0.4 mg/kg/injection, schedule: Q04DX003 (ip), vehicle: DMSO): 104 % of control

Cc1cc(=NO)cc(C)n1O
T/C (dose: 25.0 mg/kg/injection, schedule: Q01DX009 (ip), vehicle: distilled water + alcohol): 109 % of control and 94 % of control | T/C (dose: 50.0 mg/kg/injection, schedule: Q01DX009 (ip), vehicle: distilled water + alcohol): 98 % of control and 105 % of control | T/C (dose: 100.0 mg/kg/injection, schedule: Q01DX009 (ip), vehicle: distilled water + alcohol): 87 % of control and 92 % of control | T/C (dose: 200.0 mg/kg/injection, schedule: Q01DX009 (ip), vehicle: distilled water + alcohol): 92 % of control | T/C (dose: 400.0 mg/kg/injection, schedule: Q01DX009 (ip), vehicle: distilled water + alcohol): 86 % of control and 89 % of control

CC(C)(C)N1CC1CNC(=O)C(=O)NCC1CN1C(C)(C)C (configuration not stated)
T/C (dose: 0.78 mg/kg/injection, schedule: Q01DX009 (ip), vehicle: saline with Tween-80): 99 % of control | T/C (dose: 1.56 mg/kg/injection, schedule: Q01DX009 (ip), vehicle: saline with Tween-80): 101 % of control | T/C [3]: 109 % of control | T/C [4]: 150 % of control

O=[N+]([O-])c1ccc(Sc2ccncn2)c([N+](=O)[O-])c1
T/C [4]: 92 % of control | T/C [5]: 105 % of control | T/C [6]: 92 % of control | T/C [7]: 101 % of control

O=C(CO)c1ccc([N+](=O)[O-])cc1
T/C [3]: 113 % of control | T/C [8]: 94 % of control | T/C [5]: 105 % of control | T/C [6]: 100 % of control | T/C [7]: 93 % of control

O=c1ccn(C2OC(CO)C(O)C2O)c(=O)[nH]1 (configuration not stated)
T/C (dose: 12.5 mg/kg/injection, schedule: Q01DX009 (ip), vehicle: Klucel (hydroxypropylcellulose) (HPC)): 97 % of control | T/C [9]: 99 % of control | T/C [10]: 104 % of control | T/C [11]: 95 % of control | T/C [12]: 99 % of control | T/C (dose: 400.0 mg/kg/injection, schedule: Q01DX009 (ip), vehicle: Klucel (hydroxypropylcellulose) (HPC)): 102 % of control | T/C (dose: 800.0 mg/kg/injection, schedule: Q01DX009 (ip), vehicle: Klucel (hydroxypropylcellulose) (HPC)): 102 % of control

COc1ccc(C(=O)CC2CCCC(CC(=O)c3ccc(OC)cc3)N2C)cc1 (configuration not stated)
T/C [6]: 103 % of control | T/C [7]: 101 % of control

O=C(NO)c1cc(O)c(O)c(O)c1
T/C (dose: 25.0 mg/kg/injection, schedule: Q01DX009 (ip), vehicle: water): 100 % of control | T/C (dose: 50.0 mg/kg/injection, schedule: Q01DX009 (ip), vehicle: water): 105 % of control | T/C (dose: 100.0 mg/kg/injection, schedule: Q01DX009 (ip), vehicle: water): 114 % of control | T/C (dose: 200.0 mg/kg/injection, schedule: Q01DX009 (ip), vehicle: water): 118 % of control

COc1cccc2c1C(=O)c1c(O)c3c(c(O)c1C2=O)C[C@@](O)(C(C)=O)C[C@@H]3OC1CC(N(C)Cc2ccccc2)C(O)C(C)O1 (some centres not stated)
T/C (dose: 3.13 mg/kg/injection, schedule: Q01DX001 (ip), vehicle: distilled water + Tween-80): 114 % of control | T/C (dose: 12.5 mg/kg/injection, schedule: Q01DX001 (ip), vehicle: distilled water + Tween-80): 122 % of control

NC(Cc1ccc(N(CCCl)Cc2ccccc2)cc1)C(=O)O (configuration not stated)
T/C (dose: 0.78 mg/kg/injection, schedule: Q01DX009 (ip), vehicle: distilled water + Tween-80): 99 % of control | T/C (dose: 1.56 mg/kg/injection, schedule: Q01DX009 (ip), vehicle: distilled water + Tween-80): 108 % of control | T/C (dose: 3.12 mg/kg/injection, schedule: Q01DX009 (ip), vehicle: distilled water + Tween-80): 115 % of control and 100 % of control | T/C (dose: 6.25 mg/kg/injection, schedule: Q01DX009 (ip), vehicle: distilled water + Tween-80): 123 % of control and 103 % of control | T/C [13]: 110 % of control | T/C [14]: 118 % of control

CCCCCCCCCCCCCC#CC(=O)O
T/C [3]: 110 % of control and 94 % of control | T/C [8]: 112 % of control and 94 % of control | T/C [4]: 92 % of control and 105 % of control | T/C [5]: 89 % of control

O=c1[nH]c2c(ccc3cnccc32)c2c1CCC2
T/C (dose: 3.12 mg/kg/injection, schedule: Q01DX009 (ip), vehicle: saline): 97 % of control | T/C (dose: 6.25 mg/kg/injection, schedule: Q01DX009 (ip), vehicle: saline): 113 % of control | T/C [15]: 119 % of control

COc1cc2c(c(OC)c1O)-c1ccc(SC)c(=O)cc1C(NC(C)=O)CC2 (configuration not stated)
T/C (dose: 2.5 mg/kg/injection, schedule: Q01DX009 (ip), vehicle: water): 119 % of control | T/C (dose: 5.0 mg/kg/injection, schedule: Q01DX009 (ip), vehicle: water): 119 % of control | T/C (dose: 10.0 mg/kg/injection, schedule: Q01DX009 (ip), vehicle: water): 116 % of control | T/C (dose: 20.0 mg/kg/injection, schedule: Q01DX009 (ip), vehicle: water): 119 % of control | T/C (dose: 40.0 mg/kg/injection, schedule: Q01DX009 (ip), vehicle: water): 122 % of control

O=C(Nc1ccc([N+](=O)[O-])cc1)Nc1nccs1
T/C [13]: 111 % of control and 120 % of control | T/C [14]: 111 % of control | T/C (dose: 100.0 mg/kg/injection, schedule: Q01DX009 (ip), vehicle: distilled water + Tween-80): 105 % of control

C=C1C(O)C2(O)OCC34C(CC5C(C)=CC(=O)C(O)C5(C)C23)OC(=O)C(OC(=O)C/C=C(\C)CCCCC)C14 (configuration not stated)
T/C (dose: 4.0 mg/kg/injection, schedule: Q01DX009 (ip), vehicle: saline + alcohol): 187 % of control | T/C (dose: 4.8 mg/kg/injection, schedule: Q01DX009 (ip), vehicle: saline + Tween-80 + alcohol): 156 % of control | T/C (dose: 8.0 mg/kg/injection, schedule: Q01DX009 (ip), vehicle: saline + Tween-80 + alcohol): 154 % of control | T/C (dose: 8.0 mg/kg/injection, schedule: Q01DX009 (ip), vehicle: saline + alcohol): 187 % of control

Cc1ccc(NCCN(C)C)c2c(=O)c3cc(O)ccc3sc12
T/C (dose: 12.0 mg/kg/injection, schedule: Q01DX009 (ip), vehicle: Klucel (hydroxypropylcellulose) (HPC)): 164 % of control | T/C [9]: 183 % of control | T/C [10]: 87 % of control

O=C1C=CC(=Nc2ccc3c(c2)C(Br)c2ccccc2-3)O1 (configuration not stated)
T/C (dose: 5.0 mg/kg/injection, schedule: Q01DX009 (ip), vehicle: saline): 92 % of control | T/C (dose: 10.0 mg/kg/injection, schedule: Q01DX009 (ip), vehicle: saline): 87 % of control

CC(=O)/C(=C\c1ccc(Cl)c(Cl)c1)C(=O)CCN(C)C
T/C [15]: 94 % of control | T/C (dose: 25.0 mg/kg/injection, schedule: Q01DX009 (ip), vehicle: saline): 93 % of control | T/C (dose: 50.0 mg/kg/injection, schedule: Q01DX009 (ip), vehicle: saline): 89 % of control

O=c1nc(-c2ccco2)sc(=O)[nH]1
T/C [9]: 95 % of control | T/C [10]: 99 % of control | T/C [11]: 118 % of control | T/C [12]: 112 % of control
